Measurements from ChEMBL document CHEMBL3352495, “Discovery of the 1,7-diazacarbazole class of inhibitors of checkpoint kinase 1” (Bioorg Med Chem Lett, 2014).

Tests used:
Format in all cases: ADME, organism-based
[1] = AUC in NCR mouse at 25 mg/kg, po administered as suspension; design: dose 25 mg/kg, route oral; settings: plasma
[2] = Cmax in CD1 mouse at 5 mg/kg, po administered as solution; design: dose 5 mg/kg, route oral; settings: in vivo
[3] = AUC in CD1 mouse at 5 mg/kg, po administered as solution; design: dose 5 mg/kg, route oral; settings: plasma
[4] = Oral bioavailability in CD1 mouse at 5 mg/kg administered as suspension; settings: in vivo
[5] = Clearance in CD1 mouse at 0.5 mg/kg, iv; design: dose 0.5 mg/kg, route intravenous; settings: in vivo
[6] = Oral bioavailability in Sprague-Dawley rat at 5 mg/kg administered as solution; settings: in vivo
[7] = AUC in CD1 mouse at 5 mg/kg, po administered as suspension; design: dose 5 mg/kg, route oral; settings: plasma
[8] = AUC in Sprague-Dawley rat at 1 mg/kg, iv; design: dose 1 mg/kg, route intravenous; settings: plasma
[9] = Oral bioavailability in NCR mouse at 25 mg/kg administered as solution; settings: in vivo
[10] = Oral bioavailability in NCR mouse at 25 mg/kg administered as suspension; settings: in vivo
[11] = Half life in CD1 mouse at 5 mg/kg, po administered as solution; design: dose 5 mg/kg, route oral; settings: in vivo
Mus musculus [12] = experiment: Dose normalized AUC in CD1 mouse at 5 mg/kg, po administered as suspension; design: dose 5 mg/kg, route oral; settings: in vivo
[13] = Cmax in NCR mouse at 25 mg/kg, po administered as suspension; design: dose 25 mg/kg, route oral; settings: in vivo
Rattus norvegicus [14] = experiment: Dose normalized AUC in Sprague-Dawley rat at 5 mg/kg, po administered as solution; design: dose 5 mg/kg, route oral; settings: in vivo
[15] = Half life in CD1 mouse at 0.5 mg/kg, iv; design: dose 0.5 mg/kg, route intravenous; settings: in vivo
Mus musculus [16] = experiment: Dose normalized AUC in NCR mouse at 25 mg/kg, po administered as solution; design: dose 25 mg/kg, route oral; settings: in vivo
[17] = Cmax in Sprague-Dawley rat at 5 mg/kg, po administered as solution; design: dose 5 mg/kg, route oral; settings: in vivo
[18] = Half life in Sprague-Dawley rat at 5 mg/kg, po administered as solution; design: dose 5 mg/kg, route oral; settings: in vivo
[19] = AUC in CD1 mouse at 0.5 mg/kg, iv; design: dose 0.5 mg/kg, route intravenous; settings: plasma
[20] = Cmax in CD1 mouse at 5 mg/kg, po administered as suspension; design: dose 5 mg/kg, route oral; settings: in vivo
[21] = Clearance in Sprague-Dawley rat at 1 mg/kg, iv; design: dose 1 mg/kg, route intravenous; settings: in vivo
Mus musculus [22] = experiment: Dose normalized AUC in CD1 mouse at 0.5 mg/kg, iv; design: dose 0.5 mg/kg, route intravenous; settings: in vivo
Mus musculus [23] = experiment: Dose normalized AUC in NCR mouse at 25 mg/kg, po administered as suspension; design: dose 25 mg/kg, route oral; settings: in vivo
[24] = Half life in Sprague-Dawley rat at 1 mg/kg, iv; design: dose 1 mg/kg, route intravenous; settings: in vivo
[25] = AUC in NCR mouse at 25 mg/kg, po administered as solution; design: dose 25 mg/kg, route oral; settings: plasma
[26] = Half life in NCR mouse at 25 mg/kg, po administered as solution; design: dose 25 mg/kg, route oral; settings: in vivo
[27] = Oral bioavailability in CD1 mouse at 5 mg/kg administered as solution; settings: in vivo
[28] = Half life in NCR mouse at 25 mg/kg, po administered as suspension; design: dose 25 mg/kg, route oral; settings: in vivo
Rattus norvegicus [29] = experiment: Dose normalized AUC in Sprague-Dawley rat at 1 mg/kg, iv; design: dose 1 mg/kg, route intravenous; settings: in vivo
Mus musculus [30] = experiment: Dose normalized AUC in CD1 mouse at 5 mg/kg, po administered as solution; design: dose 5 mg/kg, route oral; settings: in vivo
[31] = Half life in CD1 mouse at 5 mg/kg, po administered as suspension; design: dose 5 mg/kg, route oral; settings: in vivo
[32] = AUC in Sprague-Dawley rat at 5 mg/kg, po administered as solution; design: dose 5 mg/kg, route oral; settings: plasma
[33] = Cmax in NCR mouse at 25 mg/kg, po administered as solution; design: dose 25 mg/kg, route oral; settings: in vivo

AUC [1]: 9370 nM·h
Cmax [2]: 0.45 µM
AUC [3]: 1850 nM·h
bioavailability [4]: 50%
clearance [5]: 4.02 L/h/kg
bioavailability [6]: 62%
AUC [7]: 1720 nM·h
AUC [8]: 1810 nM·h
bioavailability [9]: 50%
bioavailability [10]: 55%
half-life [11]: 1.6 h
AUC/dose (Mus musculus [12]): 0.13 kg·h/L
Cmax [13]: 0.91 µM
AUC/dose (Rattus norvegicus [14]): 0.42 kg·h/L
half-life [15]: 5.8 h
AUC/dose (Mus musculus [16]): 0.13 kg·h/L
Cmax [17]: 0.93 µM
half-life [18]: 2.3 h
AUC [19]: 340 nM·h
Cmax [20]: 0.2 µM
clearance [21]: 1.62 L/h/kg
AUC/dose (Mus musculus [22]): 0.25 kg·h/L
AUC/dose (Mus musculus [23]): 0.14 kg·h/L
half-life [24]: 1.8 h
AUC [25]: 8460 nM·h
half-life [26]: 2.1 h
bioavailability [27]: 54%
half-life [28]: 4 h
AUC/dose (Rattus norvegicus [29]): 0.67 kg·h/L
AUC/dose (Mus musculus [30]): 0.14 kg·h/L
half-life [31]: 2.9 h
AUC [32]: 5640 nM·h
Cmax [33]: 2.51 µM
Compound: CN1CCN(c2ccc(-c3cnc4[nH]c5cnc(C#N)cc5c4c3)cc2)CC1
